Measured values from ChEMBL document CHEMBL3853265 (Medchemcomm, 2016).

How the values were obtained:
[1] = Unbound Cmax in Wistar Han rat at 10 mg/kg, po […] measured on day 14; type: ADME, organism-based; conditions: in vivo
[2] = Drug metabolism in dog hepatocytes; type: ADME, cell-based, Canis lupus familiaris, Hepatocyte
Cytochrome P450 1A2 = molecular target: T1, Cytochrome P450 1A2 (Homo sapiens, UniProt P05177); assay: Inhibition of CYP1A2 (unknown origin); type: ADME
T1 sequence (P05177 whole entry): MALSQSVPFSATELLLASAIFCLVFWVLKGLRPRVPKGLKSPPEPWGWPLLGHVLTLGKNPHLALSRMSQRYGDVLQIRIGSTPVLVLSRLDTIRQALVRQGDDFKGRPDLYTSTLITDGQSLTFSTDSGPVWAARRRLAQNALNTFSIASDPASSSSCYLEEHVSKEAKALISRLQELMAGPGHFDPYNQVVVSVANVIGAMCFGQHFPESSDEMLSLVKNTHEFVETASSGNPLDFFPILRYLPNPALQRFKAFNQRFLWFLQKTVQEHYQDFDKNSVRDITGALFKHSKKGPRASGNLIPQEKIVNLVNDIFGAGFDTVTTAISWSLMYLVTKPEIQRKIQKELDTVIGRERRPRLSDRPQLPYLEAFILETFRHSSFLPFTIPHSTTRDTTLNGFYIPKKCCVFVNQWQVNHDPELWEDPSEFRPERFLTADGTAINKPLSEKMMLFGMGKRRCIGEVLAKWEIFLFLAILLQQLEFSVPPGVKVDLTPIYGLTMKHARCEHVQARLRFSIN

[3] = Drug metabolism in human liver microsomes assessed as monooxidation at phenyl and pyridine moieties; type: ADME
Cytochrome P450 2D6 = Cytochrome P450 2D6 (Homo sapiens, UniProt P10635); assay: Inhibition of CYP2D6 (unknown origin); type: ADME
Sequence of Cytochrome P450 2D6 (P10635 whole entry): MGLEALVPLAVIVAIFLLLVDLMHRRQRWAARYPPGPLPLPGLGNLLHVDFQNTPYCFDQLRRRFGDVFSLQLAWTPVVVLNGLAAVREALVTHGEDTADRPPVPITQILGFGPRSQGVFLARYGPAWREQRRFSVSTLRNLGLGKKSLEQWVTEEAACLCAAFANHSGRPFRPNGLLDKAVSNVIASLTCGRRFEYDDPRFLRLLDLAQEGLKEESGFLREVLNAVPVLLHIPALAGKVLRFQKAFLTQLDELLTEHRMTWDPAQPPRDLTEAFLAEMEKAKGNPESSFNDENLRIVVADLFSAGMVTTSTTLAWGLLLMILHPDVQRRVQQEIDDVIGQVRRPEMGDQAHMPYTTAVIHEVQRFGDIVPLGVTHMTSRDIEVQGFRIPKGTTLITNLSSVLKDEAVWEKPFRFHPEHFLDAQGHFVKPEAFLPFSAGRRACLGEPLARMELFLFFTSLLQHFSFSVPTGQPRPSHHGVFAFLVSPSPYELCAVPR

[4] = Drug recovery in bile of bile duct cannulated rat; type: ADME; conditions: read-out: Drug recovery
[5] = Drug metabolism in rat liver microsomes assessed as monooxidation at phenyl and pyridine moieties; type: ADME
P-gp = assay: Substrate activity at p-gp (unknown origin) assessed as efflux ratio of permeability; type: ADME; conditions: human, not told
Rattus norvegicus [6] = assay: Toxicity in Wistar Han rat assessed as increase in lymphocyte counts at >= 30 mg/kg/day, po administered for 14 days; type: organism-based; conditions: in vivo, 336 h
[7] = Toxicity in dog assessed as increase in body temperature at 10 mg/kg, po administered as single dose; type: organism-based, Canis lupus familiaris; conditions: in vivo
[8] = Drug metabolism in human hepatocytes assessed as monooxidation and glucuronidation; type: ADME, cell-based, Hepatocyte
[9] = Unbound Cmax in dog at 30 mg/kg, po administered as single dose; type: ADME, organism-based, Canis lupus familiaris; conditions: in vivo
[10] = Average plasma concentration in Wistar Han rat at 10 mg/kg, po administered as single dose measured on day 14; type: ADME, organism-based; conditions: in vivo
[11] = Drug metabolism in rat hepatocytes assessed as glucuronidation in presence of glutathione; type: ADME, cell-based, Hepatocyte
Cytochrome P450 2C8 = molecular target: T2, Cytochrome P450 2C8 (Homo sapiens, UniProt P10632); assay: Inhibition of CYP2C8 (unknown origin); type: ADME
T2 sequence (P10632 whole entry): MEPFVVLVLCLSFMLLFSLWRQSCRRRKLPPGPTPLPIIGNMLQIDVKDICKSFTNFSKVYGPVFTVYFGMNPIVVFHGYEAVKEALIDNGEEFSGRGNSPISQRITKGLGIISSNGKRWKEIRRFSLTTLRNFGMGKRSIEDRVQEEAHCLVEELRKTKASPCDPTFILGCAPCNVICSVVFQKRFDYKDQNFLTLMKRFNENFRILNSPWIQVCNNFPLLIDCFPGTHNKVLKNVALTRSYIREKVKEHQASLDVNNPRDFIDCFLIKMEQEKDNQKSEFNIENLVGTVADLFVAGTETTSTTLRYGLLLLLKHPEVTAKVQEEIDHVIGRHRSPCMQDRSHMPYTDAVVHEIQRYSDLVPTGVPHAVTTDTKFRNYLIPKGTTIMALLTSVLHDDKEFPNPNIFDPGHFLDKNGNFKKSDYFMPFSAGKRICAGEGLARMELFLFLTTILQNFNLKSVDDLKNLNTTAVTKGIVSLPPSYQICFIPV

[12] = Drug metabolism in dog liver microsomes; type: ADME, Canis lupus familiaris
[13] = Unbound Cmax in dog at 10 mg/kg, po administered as single dose; type: ADME, organism-based, Canis lupus familiaris; conditions: in vivo
Rattus norvegicus [14] = assay: Toxicity in Wistar Han rat assessed as moribundity at 300 mg/kg, po administered as single dose; type: organism-based; conditions: in vivo
[15] = Plasma clearance in dog at 1 mg/kg, iv and 3 mg/kg, po; type: ADME, organism-based, Canis lupus familiaris
Rattus norvegicus [16] = assay: Toxicity in Wistar Han rat assessed as centrilobular hepatocellular hypertrophy at 100 mg/kg/day, po administered for 14 days; type: organism-based; conditions: in vivo, 336 h
[17] = Half life in dog at 1 mg/kg, iv and 3 mg/kg, po; type: ADME, organism-based, Canis lupus familiaris; conditions: in vivo

With `O=S(=O)(Nc1ccc(C(F)(F)F)nc1)c1ccccc1C(F)(F)F` the fCmax [1] was 530 nM, the Drug metabolism [2] was “Metabolite_Notdetected” and the IC50 (Cytochrome P450 1A2) was greater than 30 µM. For the same compound, the Drug metabolism [3] was “Metabolite_Detected”, the IC50 (Cytochrome P450 2D6) was greater than 30 µM and the dose excreted [4] was less than 1%. For the same compound, the Drug metabolism [5] was “Metabolite_Detected”, the efflux ratio (P-gp) was 1.1 and the Activity (Rattus norvegicus [6]) was “Non-Toxic”. For the same compound, the deltaT [7] was less than 0.4 °C, the Drug metabolism [8] was “Metabolite_Detected” and the fCmax [9] was 3.754 µM. The Cave [10] was 422 nM, the Drug metabolism [11] was “Metabolite_Detected” and the IC50 (Cytochrome P450 2C8) was greater than 30 µM. The Drug metabolism [12] was “Metabolite_Notdetected” and the fCmax [13] was 1498 nM.
In the case of `O=S(=O)(Nc1cncc(C(F)(F)F)c1)c1ccccc1C(F)(F)F`, the Activity (Rattus norvegicus [14]) is reported as “Toxic”, the clearance [15] is reported as 1 mL/min/kg and the Activity (Rattus norvegicus [16]) is reported as “Non-Toxic”. The half-life [17] was 2.4 h.
